Measurements as given in patent US11191772B2, “Use” (DSM IP ASSETS B.V., priority 2017, dated 2021).

Legend:
Test in all cases: Antimicrobial efficacy challenge test (in analogy to NF EN ISO11930)
Aspergillus brasiliensis = type: cell-based; details: 22° C.
Experimental: (§1) The antimicrobial efficacy is assessed in analogy to the regulatory challenge test method (NF EN ISO11930). Thus, a solution of Erythrulose from DSM Nutritional products in two different concentrations was prepared under sterile conditions. For this the Erythrulose was solubilized in physiological serum with 0.85 wt.-% NaCl. Phenoxyethanol was solubilized in a physiological serum with 0.85 wt.-% NaCl further comprising 5 wt.-% ethanol to ensure solubility. The solutions were deposed in 96-deep well plates (1.6 ml/well). The wells were contaminated with the respective bacterial or the fungal strains at 1.9*10^5 to 8.1*10^5 cfu/ml for the bacteria and 3.3*10^3 to 3.8*10^4 cfu/ml for the fungi to obtain the initial contamination as outlined in table 1 and 2. After contamination each well was thoroughly mixed to ensure a homogeneous distribution of the microorganism. Then each plate was incubated at 22° C. for 24 h. The counting of the (remaining) population was carried out 24 h after contamination.

Corynebacterium xerosis = type: cell-based; details: for colony counts 24 h: 22° C.
Experimental: as §1

Escherichia coli = type: cell-based; details: for colony counts 24 h: 22° C.
Experimental: as §1

Propionibacterium acnes = type: cell-based; details: for colony counts 24 h: 22° C.
Experimental: as §1

Pseudomonas aeruginosa = type: cell-based; details: for colony counts 24 h: 22° C.
Experimental: as §1

[1] = system: Staphylococcus epidermidis; type: cell-based; details: for colony counts 24 h: 22° C.
Experimental: as §1

C. albicans = type: cell-based, Candida albicans; details: Erythrulose 0.4 wt.-%, 24 h after contamination, 22° C., 0 h count 19000
Experimental: as §1

S. aureus = type: cell-based, Staphylococcus aureus; details: Erythrulose 0.4 wt.-%, 24 h after contamination, 22° C., 0 h count 190000
Experimental: as §1

Structure (SMILES): O=C(CO)[C@H](O)CO (racemic) [Erythrulose, erythrulose]
- colony counts 24 h (Aspergillus brasiliensis; Erythrulose 0.08% active, Aspergillus brasiliensis, 24 h, t0 count 10000): 10 cfu/ml
- colony counts 24 h (Aspergillus brasiliensis; Erythrulose 0.4 wt.-%, A. brasiliensis, 24 h after contamination, 0 h count 38000): 330 cfu/ml
- antimicrobial activity (in words) (Corynebacterium xerosis; C. xerosis, very low concentration (table 2, 0.08%)): particularly and selectively active
- colony counts 24 h (Corynebacterium xerosis; Erythrulose 0.08% active, Corynebacterium xerosis, 24 h, t0 count 250000): 55 cfu/ml
- colony counts 24 h (Corynebacterium xerosis; Erythrulose 0.4 wt.-%, C. xerosis, 24 h after contamination, 0 h count 810000): 0 cfu/ml
- antimicrobial activity (in words) (Escherichia coli; E. coli, very low concentration (table 2, 0.08%)): not active anymore
- colony counts 24 h (Escherichia coli; Erythrulose 0.08% active, Escherichia coli, 24 h, t0 count 250000): 530000 cfu/ml
- colony counts 24 h (Escherichia coli; Erythrulose 0.4 wt.-%, E. coli, 24 h after contamination, 0 h count 440000): 280000 cfu/ml
- colony counts 24 h (Propionibacterium acnes; Erythrulose 0.08% active, Propionibacterium acnes, 24 h, t0 count 310000): 3300 cfu/ml
- colony counts 24 h (Propionibacterium acnes; Erythrulose 0.4 wt.-%, P. Acnes, 24 h after contamination, 0 h count 500000): 55000 cfu/ml
- antimicrobial activity (in words) (Propionibacterium acnes; P. acnes, very low concentration (table 2, 0.08%)): good antimicrobial activity
- colony counts 24 h (Pseudomonas aeruginosa; Erythrulose 0.08% active, Pseudomonas aeruginosa, 24 h, t0 count 450000): 530000 cfu/ml
- colony counts 24 h (Pseudomonas aeruginosa; Erythrulose 0.4 wt.-%, P. aeruginosa, 24 h after contamination, 0 h count 810000): 0 cfu/ml
- antimicrobial activity (in words) (Pseudomonas aeruginosa; P. aeruginosa, very low concentration (table 2, 0.08%)): not active anymore
- colony counts 24 h ([1]; Erythrulose 0.08% active, Staphylococcus epidermidis, 24 h, t0 count 560000): 0 cfu/ml
- colony counts 24 h ([1]; Erythrulose 0.4 wt.-%, S. epidermidis, 24 h after contamination, 0 h count 500000): 0 cfu/ml
- antimicrobial activity (in words) ([1]; S. epidermidis, very low concentration (table 2, 0.08%)): particularly and selectively active
- colony counts 24 h (C. albicans): 78 cfu/ml
- colony counts 24 h (S. aureus): 0 cfu/ml
